Results from patent US7057048B2, “Androgen receptor antagonists” (Warner Lambert Company LLC, priority 2003, dated 2006).

Each compound was assayed against T1, androgen receptor (Homo sapiens, UniProt P10275) (assay: AR Antagonist Cell Assay (MMTV-luciferase reporter, DHT-stimulated)). Settings: MDA-MB453-MMTV clone 54-19 cells, inhibition of induction by 100 pM DHT, 17 hr.
T1 sequence (P10275 1-920 Q868H): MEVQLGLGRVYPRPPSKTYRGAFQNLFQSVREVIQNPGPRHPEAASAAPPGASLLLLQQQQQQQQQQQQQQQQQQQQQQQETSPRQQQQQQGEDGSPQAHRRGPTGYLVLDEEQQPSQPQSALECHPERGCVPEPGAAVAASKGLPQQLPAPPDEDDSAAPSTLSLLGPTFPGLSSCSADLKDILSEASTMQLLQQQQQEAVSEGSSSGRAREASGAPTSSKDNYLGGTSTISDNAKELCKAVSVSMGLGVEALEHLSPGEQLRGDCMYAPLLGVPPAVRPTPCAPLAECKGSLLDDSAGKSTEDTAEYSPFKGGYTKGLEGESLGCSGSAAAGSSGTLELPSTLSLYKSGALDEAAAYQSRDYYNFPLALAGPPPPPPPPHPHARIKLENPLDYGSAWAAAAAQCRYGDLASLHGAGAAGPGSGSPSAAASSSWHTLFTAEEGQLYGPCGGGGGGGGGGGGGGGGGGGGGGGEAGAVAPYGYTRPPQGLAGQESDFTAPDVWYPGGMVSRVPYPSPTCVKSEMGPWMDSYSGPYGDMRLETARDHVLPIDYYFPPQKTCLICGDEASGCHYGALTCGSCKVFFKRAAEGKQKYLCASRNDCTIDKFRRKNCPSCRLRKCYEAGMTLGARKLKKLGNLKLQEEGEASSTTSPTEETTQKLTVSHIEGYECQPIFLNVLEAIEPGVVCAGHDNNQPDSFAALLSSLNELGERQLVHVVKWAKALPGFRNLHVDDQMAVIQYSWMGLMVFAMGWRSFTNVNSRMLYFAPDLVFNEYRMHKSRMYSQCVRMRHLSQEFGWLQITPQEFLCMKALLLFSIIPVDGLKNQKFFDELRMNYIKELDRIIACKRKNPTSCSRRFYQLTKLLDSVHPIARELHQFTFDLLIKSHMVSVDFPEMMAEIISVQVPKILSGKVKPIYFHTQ
Type: cell-based
Method: The compounds ability to antagonize the effects of androgen on the androgen receptor were determined in the protocol described immediately below.
Experimental Procedure for AR Antagonist Cell Assay
Cell line: MDA-MB453-MMTV clone 54-19. This cell line is a stable transfected cell line with MDA-MB453 cell background (human breast tumor cell expressing high level of androgen receptor). A MMTV minimal promoter containing ARE was first cloned in front of a firefly luciferase reporter gene. Then the cascade was cloned into transfection vector pUV120puro. Electroporation method was used for transfecting MDA-MB-453 cell. Puromycin resistant stable cell line was selected.
Cell Culture Media and Reagents:
Culture medium: DMEM (high glucose, Gibco cat #: 11960-044), 10% FBS, and 1% L-glutamine
Plating medium: DMEM (phenol red free), 10% charcoal treated HyClone serum, 1% L-glutamine
Assay medium: DMEM (phenol red free), 1% charcoal treated HyClone serum, 1% L-glutamine, and 1% penicillin/streptomycin
3×luciferase buffer: 2% beta-mercaptoethanol, 0.6% ATP, 0.0135% luciferine in cell lysis buffer
• 1. Cells are maintained in culture medium, splitting cells when they reach 80–90% confluence • 2. To test compounds, 10,000 cells/well are plated to opaque 96 cell culture plate in 100 ul/well plating medium, culture for overnight at 37° C. in cell culture incubator • 3. Carefully remove plating medium, then add 80 ul/well of pre-warmed assay medium, add 10 ul/well testing compound (final concentration at 10 uM or 1 uM), incubate at 37° C. for 30 minutes • 4. Add 10 ul/well freshly prepared DHT (final concentration at 100 pM) to each well, incubate at 37° C. for 17 hr (overnight) • 5. Add 50 ul/well 3×luciferase buffer, incubate at room temperature for 5 minutes, then count on Luminometer
The fold induction over background by 100 pM DHT in the absence of testing compounds is standardized as 100% and experimental result is expressed as percentage of inhibition by testing compounds.

Question: For `O=c1cc(C(F)(F)F)c2cc(Cc3ccc(S(=O)(=O)N4CCCCC4)cc3)ccc2[nH]1` [Example 23, 6-[4-(Piperidine-1-sulfonyl)benzyl]-4-trifluoromethyl-1H-quinolin-2-one], which IC50 is on record?
Answer: Its IC50 is > 10 µM.

Question: How did the IC50 turn out when `CCN1CCN(S(=O)(=O)c2ccc(Cc3ccc4[nH]c(=O)cc(C(F)(F)F)c4c3)cc2)CC1` [Example 8, 6-[4-(4-Ethylpiperazine-1-sulfonyl)benzyl]-4-trifluoromethyl-1H-quinolin-2-one] was run?
Answer: The IC50 was > 10 µM.

Question: Which IC50 does the source give for `COc1ccc(N2CCN(S(=O)(=O)c3ccc(Cc4ccc5[nH]c(=O)cc(C(F)(F)F)c5c4)cc3)CC2C)cc1` (centres unmarked) [Example 3, 6-{4-[4-(4-Methoxyphenyl)-3-methylpiperazine-1-sulfonyl]benzyl}-4-trifluoromethyl-1H-quinolin-2-one] here?
Answer: Its IC50 is > 10 µM.

Question: For `COc1cc2c(cc1OC)CN(S(=O)(=O)c1ccc(Cc3ccc4[nH]c(=O)cc(C(F)(F)F)c4c3)cc1)CC2` [Example 5, 6-[4-(6,7-Dimethoxy-3,4-dihydro-1H-isoquinoline-2-sulfonyl)benzyl]-4-trifluoromethyl-1H-quinolin-2-one], which IC50 is on record?
Answer: Its IC50 is > 10 µM.

Question: `O=C(CN1CCN(S(=O)(=O)c2ccc(Cc3ccc4oc(=O)cc(C(F)(F)F)c4c3)cc2)CC1)N1CCCC1` [Example 47, 6-{4-[4-(2-Oxo-2-pyrrolidin-1-ylethyl)piperazine-1-sulfonyl]benzyl}-4-trifluoromethylchromen-2-one] was tested. Which IC50 did it give?
Answer: Its IC50 is > 10 µM.

Question: How did the IC50 turn out when `COC(=O)[C@@H]1CCCN1S(=O)(=O)c1ccc(Cc2ccc3[nH]c(=O)cc(C(F)(F)F)c3c2)cc1` [Example 9, 1-[4-(2-Oxo-4-trifluoromethyl-1,2-dihydroquinolin-6-ylmethyl)benzenesulfonyl]-pyrrolidine-2-carboxylicacid methyl ester] was run?
Answer: The IC50 was 5.4 µM.

Question: Which IC50 does the source give for `COCCN1CCN(S(=O)(=O)c2ccc(Cc3ccc4oc(=O)cc(C(F)(F)F)c4c3)cc2)CC1` [Example 39, 6-{4-[4-(2-Methoxyethyl)piperazine-1-sulfonyl]benzyl}-4-trifluoromethylchromen-2-one] here?
Answer: The IC50 was 9.4 µM.

Question: With `CN(C)CCN1CCN(S(=O)(=O)c2ccc(Cc3ccc4oc(=O)cc(C(F)(F)F)c4c3)cc2)CC1` [Example 55, 6-{4-[4-(2-Dimethylamino-ethyl)piperazine-1-sulfonyl]benzyl}-4-trifluoromethylchromen-2-one] as the compound, how does the IC50 read?
Answer: The IC50 was > 10 µM.

Question: Which IC50 does the source give for `O=c1cc(C(F)(F)F)c2cc(Cc3ccc(S(=O)(=O)N4CCN(CCOCCO)CC4)cc3)ccc2o1` [Example 42, 6-(4-{4-[2-(2-Hydroxyethoxy)ethyl]-piperazine-1-sulfonyl}benzyl)-4-trifluoromethylchromen-2-one] here?
Answer: The IC50 was > 10 µM.

Question: How did the IC50 turn out when `O=c1cc(C(F)(F)F)c2cc(Cc3ccc(S(=O)(=O)N4CCN(CCO)CC4)cc3)ccc2[nH]1` [Example 10, 6-{4-[4-(2-Hydroxyethyl)piperazine-1-sulfonyl]benzyl}-4-trifluoromethyl-1H-quinolin-2-one] was run?
Answer: The IC50 was > 10 µM.

Question: With `CC1CCN(S(=O)(=O)c2ccc(Cc3ccc4oc(=O)cc(C(F)(F)F)c4c3)cc2)CC1` [Example 49, 6-[4-(4-Methylpiperidine-1-sulfonyl)benzyl]-4-trifluoromethylchromen-2-one] as the compound, how does the IC50 read?
Answer: Its IC50 is > 10 µM.

Question: How did the IC50 turn out when `CC1CCN(S(=O)(=O)c2ccc(Cc3ccc4[nH]c(=O)cc(C(F)(F)F)c4c3)cc2)CC1` [Example 15, 6-[4-(4-Methylpiperidine-1-sulfonyl)benzyl]-4-trifluoromethyl-1H-quinolin-2-one] was run?
Answer: Its IC50 is > 10 µM.

Question: Which IC50 does the source give for `O=c1cc(C(F)(F)F)c2cc(Cc3ccc(S(=O)(=O)N4CCC(O)CC4)cc3)ccc2o1` [Example 56, 6-[4-(4-Hydroxypiperidine-1-sulfonyl)benzyl]-4-trifluoromethylchromen-2-one] here?
Answer: Its IC50 is > 10 µM.

Question: How did the IC50 turn out when `COc1ccc(N2CCN(S(=O)(=O)c3ccc(Cc4ccc5oc(=O)cc(C(F)(F)F)c5c4)cc3)CC2C)cc1` (centres unmarked) [Example 32, 6-{4-[4-(4-Methoxyphenyl)-3-methylpiperazine-1-sulfonyl]benzyl}-4-trifluoromethylchromen-2-one] was run?
Answer: The IC50 was 9.3 µM.

Question: `O=c1cc(C(F)(F)F)c2cc(Cc3ccc(S(=O)(=O)N4CCCCC4CO)cc3)ccc2o1` (centres unmarked) [Example 37, 6-[4-(2-Hydroxymethyl-piperidine-1-sulfonyl)benzyl]-4-trifluoromethylchromen-2-one] was tested. Which IC50 did it give?
Answer: Its IC50 is 5.3 µM.

Question: `O=c1cc(C(F)(F)F)c2cc(Cc3ccc(S(=O)(=O)N4CCCCC4c4cccnc4)cc3)ccc2[nH]1` (centres unmarked) [Example 14, 6-[4-(3,4,5,6-Tetrahydro-2H-[2,3′]bipyridinyl-1-sulfonyl)benzyl]-4-trifluoromethyl-1H-quinolin-2-one] was tested. Which IC50 did it give?
Answer: Its IC50 is 4.7 µM.

Question: How did the IC50 turn out when `O=c1cc(C(F)(F)F)c2cc(Cc3ccc(S(=O)(=O)N4CCCC4CO)cc3)ccc2[nH]1` (centres unmarked) [Example 18, 6-[4-(2-Hydroxymethylpyrrolidine-1-sulfonyl)benzyl]-4-trifluoromethyl-1H-quinolin-2-one] was run?
Answer: The IC50 was 8 µM.

Question: `O=c1cc(C(F)(F)F)c2cc(Cc3ccc(S(=O)(=O)N4CCN(c5ccncc5)CC4)cc3)ccc2o1` [Example 50, 6-[4-(4-Pyridin-4-ylpiperazine-1-sulfonyl)benzyl]-4-trifluoromethylchromen-2-one] was tested. Which IC50 did it give?
Answer: The IC50 was 1.6 µM.

Question: With `CCOC(=O)C1CCCN(S(=O)(=O)c2ccc(Cc3ccc4oc(=O)cc(C(F)(F)F)c4c3)cc2)C1` (centres unmarked) [Example 28, 1-[4-(2-Oxo-4-trifluoromethyl-2H-chromen-6-ylmethyl)-benzenesulfonyl]piperidine-3-carboxylic acid ethylester] as the compound, how does the IC50 read?
Answer: Its IC50 is > 10 µM.

Question: Which IC50 does the source give for `CCOC(=O)N1CCN(S(=O)(=O)c2ccc(Cc3ccc4oc(=O)cc(C(F)(F)F)c4c3)cc2)CC1` [Example 29, 4-[4-(2-Oxo-4-trifluoromethyl-2H-chromen-6-ylmethyl)-benzenesulfonyl]piperazine-1-carboxylic acid ethylester] here?
Answer: Its IC50 is > 10 µM.

Question: Which IC50 does the source give for `O=c1cc(C(F)(F)F)c2cc(Cc3ccc(S(=O)(=O)N4CCCCC4CCO)cc3)ccc2[nH]1` (centres unmarked) [Example 17, 6-{4-[2-(2-Hydroxyethyl)piperidine-1-sulfonyl]benzyl}-4-trifluoromethyl-1H-quinolin-2-one] here?
Answer: Its IC50 is > 10 µM.

Question: With `O=c1cc(C(F)(F)F)c2cc(Cc3ccc(S(=O)(=O)N4CCCCC4c4cccnc4)cc3)ccc2o1` (centres unmarked) [Example 48, 6-[4-(3,4,5,6-Tetrahydro-2H-[2,3′]bipyridinyl-1-sulfonyl)benzyl]-4-trifluoromethylchromen-2-one] as the compound, how does the IC50 read?
Answer: The IC50 was 8.9 µM.

Question: How did the IC50 turn out when `O=c1cc(C(F)(F)F)c2cc(Cc3ccc(S(=O)(=O)N4CCCC4)cc3)ccc2[nH]1` [Example 20, 6-[4-(Pyrrolidine-1-sulfonyl)benzyl]-4-trifluoromethyl-1H-quinolin-2-one] was run?
Answer: The IC50 was > 10 µM.

Question: How did the IC50 turn out when `O=c1cc(C(F)(F)F)c2cc(Cc3ccc(S(=O)(=O)N4CCCCCC4)cc3)ccc2[nH]1` [Example 21, 6-[4-(Azepane-1-sulfonyl)benzyl]-4-trifluoromethyl-1H-quinolin-2-one] was run?
Answer: Its IC50 is 9.2 µM.

Question: For `O=c1cc(C(F)(F)F)c2cc(Cc3ccc(S(=O)(=O)N4CCC(CO)CC4)cc3)ccc2o1` [Example 64, 6-[4-(4-Hydroxymethyl-piperidine-1-sulfonyl)benzyl]-4-trifluoromethylchromen-2-one], which IC50 is on record?
Answer: Its IC50 is 2.5 µM.

Question: For `CCOCCN1CCN(S(=O)(=O)c2ccc(Cc3ccc4oc(=O)cc(C(F)(F)F)c4c3)cc2)CC1` [Example 62, 6-{4-[4-(2-Ethoxyethyl)piperazine-1-sulfonyl]benzyl}-4-trifluoromethylchromen-2-one], which IC50 is on record?
Answer: The IC50 was > 10 µM.
